Measured values published in patent EP3002287B1, “Thiochromeno[2,3-c]quinolin-12-one derivatives and their use as topoisomerase inhibitors” (National Defense Medical Center, priority 2014, dated 2016).

Experiments:
DU-145 = assay: MTT assay for cell cytotoxicity; type: cell-based, human; conditions: Homo sapiens, 72 h, at least three independent experiments, read-out: MTT assay (IC50 ± SD) DU-145
How it was run: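 Seeded cells pre-incubated 24 h, then treated 72 h with 0.15–15 µM compound in RPMI-1640/5% FBS at 37 °C. MTT (1 mg/mL) added for 4 h, formazan dissolved in DMSO, absorbance at 560 nm; IC50 from mean of ≥3 independent experiments.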

PC-3 [1] = assay: MTT assay for cell cytotoxicity; type: cell-based, human; conditions: Homo sapiens, 72 h, at least three independent experiments, read-out: MTT assay (IC50 ± SD) PC-3
CCRF-CEM = assay: NCI in vitro 60-cell drug screen (SRB assay); type: cell-based; conditions: CCRF-CEM (Leukemia); 10^-5 molar concentration; 48 hours
MOLT-4 = assay: NCI in vitro 60-cell drug screen (SRB assay); type: cell-based; conditions: MOLT-4 (Leukemia); 10^-5 molar concentration; 48 hours
SR = assay: NCI in vitro 60-cell drug screen (SRB assay); type: cell-based; conditions: SR (Leukemia); 10^-5 molar concentration; 48 hours
A549/ATCC = assay: NCI in vitro 60-cell drug screen (SRB assay); type: cell-based; conditions: A549/ATCC (Non-small cell lung cancer); 10^-5 molar concentration; 48 hours
NCI-H226 = assay: NCI in vitro 60-cell drug screen (SRB assay); type: cell-based; conditions: NCI-H226 (Non-small cell lung cancer); 10^-5 molar concentration; 48 hours
NCI-H23 = assay: NCI in vitro 60-cell drug screen (SRB assay); type: cell-based; conditions: NCI-H23 (Non-small cell lung cancer); 10^-5 molar concentration; 48 hours
HCT-116 = assay: NCI in vitro 60-cell drug screen (SRB assay); type: cell-based; conditions: HCT-116 (Colon cancer); 10^-5 molar concentration; 48 hours
KM12 = assay: NCI in vitro 60-cell drug screen (SRB assay); type: cell-based; conditions: KM12 (Colon cancer); 10^-5 molar concentration; 48 hours
SW-620 = assay: NCI in vitro 60-cell drug screen (SRB assay); type: cell-based; conditions: SW-620 (Colon cancer); 10^-5 molar concentration; 48 hours
SF-268 = assay: NCI in vitro 60-cell drug screen (SRB assay); type: cell-based; conditions: SF-268 (CNS cancer); 10^-5 molar concentration; 48 hours
SF-295 = assay: NCI in vitro 60-cell drug screen (SRB assay); type: cell-based; conditions: SF-295 (CNS cancer); 10^-5 molar concentration; 48 hours
M14 = assay: NCI in vitro 60-cell drug screen (SRB assay); type: cell-based; conditions: M14 (Melanoma); 10^-5 molar concentration; 48 hours
MDA-MB-435 = assay: NCI in vitro 60-cell drug screen (SRB assay); type: cell-based; conditions: MDA-MB-435 (Melanoma); 10^-5 molar concentration; 48 hours
SK-MEL-2 = assay: NCI in vitro 60-cell drug screen (SRB assay); type: cell-based; conditions: SK-MEL-2 (Melanoma); 10^-5 molar concentration; 48 hours
SK-MEL-28 = assay: NCI in vitro 60-cell drug screen (SRB assay); type: cell-based; conditions: SK-MEL-28 (Melanoma); 10^-5 molar concentration; 48 hours
UACC-257 = assay: NCI in vitro 60-cell drug screen (SRB assay); type: cell-based; conditions: UACC-257 (Melanoma); 10^-5 molar concentration; 48 hours
UACC-62 = assay: NCI in vitro 60-cell drug screen (SRB assay); type: cell-based; conditions: UACC-62 (Melanoma); 10^-5 molar concentration; 48 hours
OVCAR-4 = assay: NCI in vitro 60-cell drug screen (SRB assay); type: cell-based; conditions: OVCAR-4 (Ovarian cancer); 10^-5 molar concentration; 48 hours
786-0 = assay: NCI in vitro 60-cell drug screen (SRB assay); type: cell-based; conditions: 786-0 (Renal cancer); 10^-5 molar concentration; 48 hours
A498 = assay: NCI in vitro 60-cell drug screen (SRB assay); type: cell-based; conditions: A498 (Renal cancer); 10^-5 molar concentration; 48 hours
CAKI-1 = assay: NCI in vitro 60-cell drug screen (SRB assay); type: cell-based; conditions: CAKI-1 (Renal cancer); 10^-5 molar concentration; 48 hours
UO-31 = assay: NCI in vitro 60-cell drug screen (SRB assay); type: cell-based; conditions: UO-31 (Renal cancer); 10^-5 molar concentration; 48 hours
PC-3 [2] = assay: NCI in vitro 60-cell drug screen (SRB assay); type: cell-based; conditions: PC-3 (Prostate cancer); 10^-5 molar concentration; 48 hours
MCF7 = assay: NCI in vitro 60-cell drug screen (SRB assay); type: cell-based; conditions: MCF7 (Breast cancer); 10^-5 molar concentration; 48 hours
MDA-MB-231/ATCC = assay: NCI in vitro 60-cell drug screen (SRB assay); type: cell-based; conditions: MDA-MB-231/ATCC (Breast cancer); 10^-5 molar concentration; 48 hours
HS 578T = assay: NCI in vitro 60-cell drug screen (SRB assay); type: cell-based; conditions: HS 578T (Breast cancer); 10^-5 molar concentration; 48 hours
MDA-MB-486 = assay: NCI in vitro 60-cell drug screen (SRB assay); type: cell-based; conditions: MDA-MB-486 (Breast cancer); 10^-5 molar concentration; 48 hours

Compound | IC50 (DU-145) [µM] | IC50 (PC-3 [1]) [µM] | Growth percent (CCRF-CEM) [%] | Growth percent (MOLT-4) [%] | Growth percent (SR) [%] | Growth percent (A549/ATCC) [%] | Growth percent (NCI-H226) [%] | Growth percent (NCI-H23) [%] | Growth percent (HCT-116) [%] | Growth percent (KM12) [%] | Growth percent (SW-620) [%] | Growth percent (SF-268) [%] | Growth percent (SF-295) [%] | Growth percent (M14) [%] | Growth percent (MDA-MB-435) [%] | Growth percent (SK-MEL-2) [%] | Growth percent (SK-MEL-28) [%] | Growth percent (UACC-257) [%] | Growth percent (UACC-62) [%] | Growth percent (OVCAR-4) [%] | other results
O=c1c2cc(Cl)ccc2sc2c(N3CCN(c4ccccc4)CC3)nc3ccccc3c12 [Compound 12, 10-Chloro-6-(4-phenylpiperazin-1-yl)-12H-thiochromeno[2,3-c] quinolin-12-one] | > 15 | > 15 | 98.41 | 107.23 | 103.11 | 98.54 | 87.10 | 93.80 | 105.36 | 113.15 | 100.20 | 103.82 | 99.23 | 104.02 | 102.39 | 104.26 | 104.22 | 93.68 | 104.48 | 94.29 | Growth percent (786-0): 101.58%; Growth percent (A498): 81.04%; Growth percent (CAKI-1): 97.83%; Growth percent (UO-31): 63.85%; Growth percent (PC-3 [2]): 90.66%; Growth percent (MCF7): 74.16%; Growth percent (MDA-MB-231/ATCC): 94.34%; Growth percent (HS 578T): 85.20%; Growth percent (MDA-MB-486): 86.34%
O=c1c2ccc(Cl)cc2sc2c(Cl)nc3ccccc3c12 [Compound 3, 6,9-Dichloro-12H-thiochromeno[2,3-c]quinolin-12-one] | > 15 | > 15 | 93.12 | 98.04 | 89.02 | 104.74 | 83.41 | 85.12 | 102.27 | 111.27 | 99.06 | 109.60 | 90.26 | 106.18 | 100.64 | 95.54 | 101.80 | 104.47 | 89.69 | 87.91 | Growth percent (786-0): 105.25%; Growth percent (A498): 106.06%; Growth percent (CAKI-1): 94.31%; Growth percent (UO-31): 66.06%; Growth percent (PC-3 [2]): 91.59%; Growth percent (MCF7): 82.58%; Growth percent (MDA-MB-231/ATCC): 84.28%; Growth percent (HS 578T): 95.14%; Growth percent (MDA-MB-486): 98.57%
